This note sets out measurements from patent US20040014671A1, “Preventives or remedies for heart failure” (priority 2000, published 2004).

Where a SMILES comes first, the peptide text is derived from it. [ ]: non-standard residue; d: D form. dTrp(2-Me) = Cc1[nH]c2ccccc2c1C[C@@H](N)C(=O)O

This experiment relates to papillary muscle of guinea-pig. Description: Myocardial contractility (developed tension) in isolated papillary muscle of guinea-pig. Conditions: for change in developed tension: isolated papillary muscle, 1 Hz stimulation; for tension development (positive inotropic action) vs baseline: applied cumulatively 10, 30 and 100 μM, n=5, FIG. 1. How it is done: The direct effect of pralmorelin on myocardial contractility was evaluated using the isolated cardiac muscle of guinea-pigs according to the standard method for evaluating myocardial contractility.
Male Hartley guinea-pigs (body weight, 301-350 g; Japan SLC) were purchased. The animals were accommodated to an environment at a temperature of 23±2° C. and a humidity of 55±15% under 12-hr light/dark cycles while they were allowed to eat and drink water ad libitum until they weighed 360-480 g. Each test substance was tested on a group of five animals.
The test substances were pralmorelin dihydrochloride (KP-102), representatives of growth hormone secretagogues such as hexarelin, ghrelin and ibutamorelin methanesulfonate (the last being hereunder referred to as MK-0677) (which were prepared by the method described in JP 6-263737 A (kokai)), as well as a recombinant human growth hormone (Sumitomo Pharmaceutical) and amrinone (Sigma) which is a known therapeutic of acute heart failure. KP-102, hexarelin and MK-0677 were dissolved in distilled water. Ghrelin was dissolved in physiological saline. Amrinone was first dissolved in dimethyl sulfoxide and then diluted with physiological saline. The growth hormone was dissolved in a dedicated solubilizer (0.3 w/v % metacresol and 3.9 w/v % D-mannitol). None of the test substance solutions should be added in an amount exceeding 1 w/v %. All reagents other than the test substances were guaranteed products of Nacalai Tesque.
The guinea-pigs were stunned with a blow to the back of their head; thereafter, the carotid artery was incised and the animals were exsanguinated to death. The chest was opened, the blood vessels in the upper part of the heart were cut and the heart was removed. The heart was immediately transferred into a Krebs-Henseleit (K-H) nutrient solution (NaCl, 118.0 mM; KCl, 4.7 mM; CaCl2. 2H2O, 1.0 mM; KH2PO4, 1.2 mM; MgSO4.7H2O, 1.2 mM; NaHCO3, 25.0 mM; glucose, 11.0 mM) that had been fully aerated with 95% O2-5% CO2. The heart was fixed on a rubber-lined Petri dish with needles such that its front face was seen. The ventricular wall of the upper right ventricle (toward the atrium) was excised transversely along the atrium, then excised longitudinally along the interventricular septum so that the ventricular wall was opened to expose the right ventricular papillary muscle. Subsequently, the entire surface of the left ventricle was cut open from the aorta (down) to the apex and the anterior wall of the left ventricle was opened wide, to both right and left, and fixed to expose the papillary muscle of the left ventricle. The tricupsid or mitral valve was cut off from the ventricle and the papillary muscle was cut off at the base to prepare a specimen of papillary muscle. The base of the specimen was fixed to field stimulating electrodes in an organ bath filled with 15 mL of the nutrient solution. The tendinous cord adhering to the valve was tied up with a thread and connected to an FD pickup (TB-612T, Nihon Kohden). A resting tension of 0.5 g was loaded and the papillary muscle was driven with an electric stimulator (SEN-3201, Nihon Kohden) at a frequency of 1 Hz by pulses of 20-ms duration and at a voltage intensity about 1.2 times the threshold. After an equilibration period of about 1 hr, KP-102, hexarelin and amrinone were each applied cumulatively up to amounts of 10, 30 and 100 μM. After examination of the changes in inotropic action due to the application of the test substances, 12.5 mM of CaCl2 was added and the maximum tension that was developed by each specimen was obtained. The developed tension was recorded with a multi-purpose preamplifier (RMP-6008, Nihon Kohden) and a recorder (WT-647G, Nihon Kohden).
Each result was expressed by mean ± standard error. […]

On to `CC(C)(N)C(=O)N[C@H](COCc1ccccc1)C(=O)N1CCC2(CC1)CN(S(C)(=O)=O)c1ccccc12` [MK-0677, ibutamorelin methanesulfonate], for which the “change in developed tension” value (100 μM) is reported as “no changes in the developed tension”.

As to `Nc1cc(-c2ccncc2)c[nH]c1=O` [amrinone], the “tension development (positive inotropic action) vs baseline” value is given as “increased in a concentration-dependent manner”. In the case of “recombinant human growth hormone: recombinant human growth hormone (Sumitomo Pharmaceutical)”, the “change in developed tension” value (0.2 IU/mL) was “no changes in the developed tension”.

On to ghrelin, for which, for the setting “1 μM”, the “change in developed tension” value was “no changes in the developed tension”.

Regarding `Cc1[nH]c2ccccc2c1C[C@@H](NC(=O)[C@@H](N)Cc1cnc[nH]1)C(=O)N[C@@H](C)C(=O)N[C@@H](Cc1c[nH]c2ccccc12)C(=O)N[C@H](Cc1ccccc1)C(=O)N[C@@H](CCCCN)C(N)=O` [hexarelin] (H-H[dTrp(2-Me)]AW[dF]K-NH2), the “tension development (positive inotropic action) vs baseline” value was “very weak and by no means significant over the baseline value”.
